Assay results as given in publication PMC8645336, “Benchmarking a highly selective USP30 inhibitor for enhancement of mitophagy and pexophagy” (Life Science Alliance, 2021).

Legend:
USP36 = target: T1, USP36 (Homo sapiens, UniProt Q9P275); assay: biochemical; parameters: Ubiquigent DUB profiler selectivity panel, remaining enzyme activity as % of control; details: read-out: % of control remaining
T1 sequence (Q9P275 1-1123): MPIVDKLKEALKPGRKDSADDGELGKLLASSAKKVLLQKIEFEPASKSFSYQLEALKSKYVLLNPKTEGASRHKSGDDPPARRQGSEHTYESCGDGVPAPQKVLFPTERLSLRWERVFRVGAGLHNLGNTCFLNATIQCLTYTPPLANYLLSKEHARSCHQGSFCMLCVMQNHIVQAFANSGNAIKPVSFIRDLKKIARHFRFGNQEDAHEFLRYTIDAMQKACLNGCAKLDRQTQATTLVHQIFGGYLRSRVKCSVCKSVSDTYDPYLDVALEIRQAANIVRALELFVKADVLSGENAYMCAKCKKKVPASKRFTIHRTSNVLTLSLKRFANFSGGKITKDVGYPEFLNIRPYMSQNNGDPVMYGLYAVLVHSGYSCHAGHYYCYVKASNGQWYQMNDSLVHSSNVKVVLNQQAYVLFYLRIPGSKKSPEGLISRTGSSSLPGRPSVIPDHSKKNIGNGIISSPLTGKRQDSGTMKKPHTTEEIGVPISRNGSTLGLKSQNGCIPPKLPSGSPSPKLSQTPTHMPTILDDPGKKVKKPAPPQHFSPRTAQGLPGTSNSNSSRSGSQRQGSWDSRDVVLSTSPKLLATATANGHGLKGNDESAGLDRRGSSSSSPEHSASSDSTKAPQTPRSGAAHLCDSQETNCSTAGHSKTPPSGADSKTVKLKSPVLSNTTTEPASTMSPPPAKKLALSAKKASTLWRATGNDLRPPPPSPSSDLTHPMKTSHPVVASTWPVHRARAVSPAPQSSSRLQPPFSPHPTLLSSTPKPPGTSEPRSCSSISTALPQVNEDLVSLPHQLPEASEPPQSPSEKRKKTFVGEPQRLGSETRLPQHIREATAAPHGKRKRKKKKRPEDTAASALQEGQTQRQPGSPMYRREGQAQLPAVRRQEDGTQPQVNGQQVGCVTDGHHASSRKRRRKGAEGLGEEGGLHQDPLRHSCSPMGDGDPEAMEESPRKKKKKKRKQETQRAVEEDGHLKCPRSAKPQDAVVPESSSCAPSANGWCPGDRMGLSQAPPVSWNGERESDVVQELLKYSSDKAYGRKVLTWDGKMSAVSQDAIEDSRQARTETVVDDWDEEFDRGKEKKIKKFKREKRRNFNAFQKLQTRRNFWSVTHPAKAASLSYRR
Summary of the method: (§1)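 In YFP-PRKN-overexpressing hTERT-RPE1 cells, 1 h antimycin A plus oligomycin A (1 μM each) with CMPD-39, then Western blot of TOMM20 ubiquitylation. Target engagement: 2 h compound, then 10 min HA-Ub-PA at 37°C, read as USP30 shift. DUB panel (>40 enzymes) screened at 1-100 μM.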

JOSD2 = target: T2, JOSD2 (Homo sapiens, UniProt Q8TAC2); assay: biochemical; parameters: Ubiquigent DUB profiler selectivity panel, remaining enzyme activity as % of control; details: read-out: % of control remaining
T2 sequence (Q8TAC2 1-188): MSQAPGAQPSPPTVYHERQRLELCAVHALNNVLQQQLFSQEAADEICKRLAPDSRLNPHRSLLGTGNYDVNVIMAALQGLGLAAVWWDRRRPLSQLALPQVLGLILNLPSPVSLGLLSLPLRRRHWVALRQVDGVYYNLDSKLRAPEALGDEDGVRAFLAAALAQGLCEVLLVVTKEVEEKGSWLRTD
Summary of the method: as §1

remaining activity at 1 µM (USP36): 110%
remaining activity at 10 µM (USP36): 98.8%
remaining activity at 100 µM (USP36): 94.8%
remaining activity at 1 µM (JOSD2): 105%
remaining activity at 10 µM (JOSD2): 90.8%
remaining activity at 100 µM (JOSD2): 94.3%
Compound: CC(C)(C)NS(=O)(=O)c1ccc(NC(=O)[C@H](Cc2ccccc2)NC(=O)c2ccc(F)cc2)cc1 [compound 39, CMPD-39]
